# According to the NIST ThermoML archive (doi:10.1016/j.jct.2017.01.019):
# ± gives the expanded uncertainty stated by the source.
# Settings: Liquid, Closed cell (Static) method
Structure (SMILES),vapor or sublimation pressure (243.15 K),vapor or sublimation pressure (248.15 K),vapor or sublimation pressure (253.15 K),vapor or sublimation pressure (258.15 K),vapor or sublimation pressure (263.15 K),vapor or sublimation pressure (268.15 K),vapor or sublimation pressure (273.15 K),vapor or sublimation pressure (278.15 K),vapor or sublimation pressure (283.15 K),vapor or sublimation pressure (288.15 K),vapor or sublimation pressure (293.15 K)
"FCC(F)(F)F [1,1,1,2-tetrafluoroethane]",84.5 ± 1.6 kPa,106.4 ± 1.6 kPa,132.7 ± 1.6 kPa,163.9 ± 1.6 kPa,200.6 ± 1.6 kPa,243.3 ± 1.6 kPa,292.7 ± 1.7 kPa,349.6 ± 1.7 kPa,414.3 ± 1.7 kPa,488.2 ± 1.8 kPa,570.7 ± 1.8 kPa
N [ammonia],119.7 ± 1.6 kPa,151.7 ± 1.6 kPa,190.2 ± 1.6 kPa,236.4 ± 1.6 kPa,290.7 ± 1.7 kPa,354.8 ± 1.7 kPa,429.3 ± 1.7 kPa,515.5 ± 1.8 kPa,615.1 ± 1.8 kPa,728.5 ± 1.9 kPa,857.1 ± 2 kPa
